This is an account of results in US12252524B2, “GIP/GLP1 co-agonist compounds” (Eli Lilly and Company, priority 2018, dated 2025).

Assay [1] concerns the target human GLP-1 receptor (GLP-1R) (Homo sapiens, UniProt P43220). The assay can be described thus: cAMP pharmacological functional assay in presence of casein, hGLP-1R. Format: cell-based. The note with it: HEK293 cells expressing hGLP-1R, 0.1% Casein, geometric mean; read-out: hGLP1R cAMP Rel EC50 nM (SEM, n).
Assay [2] concerns the target T1, gastric inhibitory peptide receptor (GIPR) (Homo sapiens, UniProt P48546).
T1 sequence (P48546 22-466): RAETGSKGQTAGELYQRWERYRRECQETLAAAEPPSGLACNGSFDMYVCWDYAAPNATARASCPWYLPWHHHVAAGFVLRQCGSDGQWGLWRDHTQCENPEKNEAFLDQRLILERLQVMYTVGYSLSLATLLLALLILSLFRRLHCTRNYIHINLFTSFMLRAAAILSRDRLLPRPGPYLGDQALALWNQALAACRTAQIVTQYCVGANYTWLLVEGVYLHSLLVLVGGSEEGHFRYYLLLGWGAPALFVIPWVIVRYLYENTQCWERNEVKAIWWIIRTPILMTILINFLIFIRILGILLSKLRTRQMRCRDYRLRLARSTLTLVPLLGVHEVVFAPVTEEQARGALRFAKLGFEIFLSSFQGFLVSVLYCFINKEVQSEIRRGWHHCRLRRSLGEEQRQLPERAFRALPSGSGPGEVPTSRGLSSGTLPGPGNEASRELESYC
Briefly: cAMP pharmacological functional assay in presence of casein, hGIPR. Format: cell-based. The note with it: HEK293 cells expressing hGIPR, 0.1% Casein, geometric mean; read-out: hGIPR cAMP Rel EC50 nM (SEM, n).

Numbered stars: 1 amine (or outer) side, 2 acyl side, 3 side chain; on linkers, the order of the positions; unused ones are H or OH. Square brackets hold non-standard residues; d marks the D form. Side chains are listed from the residue outwards. Peptide text beside a SMILES is read from it. * marks the point of attachment. C20 diacid = O=C(O)CCCCCCCCCCCCCCCCCCC(=O)*; C18 diacid = O=C(O)CCCCCCCCCCCCCCCCC(=O)*; αMePhe(2-F) = C[C@](N)(Cc1ccccc1F)C(=O)O; γGlu = O=C(O)[C@H](CCC(=O)[*:2])N[*:1]; αMeF = C[C@](N)(Cc1ccccc1)C(=O)O; αMeL = CC(C)C[C@](C)(N)C(=O)O; AEEA = NCCOCCOCC(=O)O; Aib = CC(C)(N)C(=O)O

Chain of human GLP-1 receptor (GLP-1R) (P43220 24-463): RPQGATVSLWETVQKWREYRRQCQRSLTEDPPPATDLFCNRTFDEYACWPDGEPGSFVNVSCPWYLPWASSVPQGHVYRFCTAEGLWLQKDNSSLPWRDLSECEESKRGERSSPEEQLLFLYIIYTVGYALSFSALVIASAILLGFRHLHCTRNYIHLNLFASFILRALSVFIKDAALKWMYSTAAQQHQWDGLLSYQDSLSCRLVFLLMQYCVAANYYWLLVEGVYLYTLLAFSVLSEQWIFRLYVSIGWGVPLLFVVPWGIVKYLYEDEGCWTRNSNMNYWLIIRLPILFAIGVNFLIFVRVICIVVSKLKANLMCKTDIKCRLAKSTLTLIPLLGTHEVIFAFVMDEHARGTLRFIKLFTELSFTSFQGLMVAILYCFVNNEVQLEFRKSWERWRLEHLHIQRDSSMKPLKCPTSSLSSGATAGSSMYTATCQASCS

Broadly, the EC50 is the concentration needed to bring the measured effect to its halfway point. Regarding `CC[C@H](C)[C@H](NC(=O)[C@H](CC(C)C)NC(=O)[C@H](Cc1ccc(O)cc1)NC(=O)[C@@H](CCC(=O)O)NC(=O)[C@@H](NC(=O)[C@H](Cc1ccccc1)NC(=O)[C@H](Cc1c[nH]cn1)NC(=O)C(C)(C)NC(=O)[C@H](CCC(N)=O)NC(=O)[C@H](C)NC(=O)[C@H](CCCCNC(=O)COCCOCCNC(=O)COCCOCCNC(=O)CC[C@H](NC(=O)CCCCCCCCCCCCCCCCC(=O)O)C(=O)O)NC(=O)[C@H](CCC(=O)O)NC(=O)[C@H](CC(=O)O)NC(=O)[C@H](CC(C)C)NC(=O)[C@](C)(CC(C)C)NC(=O)[C@@H](NC(=O)[C@H](CO)NC(=O)[C@H](Cc1c[nH]cn1)NC(=O)[C@H](CC(=O)O)NC(=O)[C@H](CO)NC(=O)[C@@H](NC(=O)[C@](C)(Cc1ccccc1F)NC(=O)[C@@H](NC(=O)CNC(=O)[C@H](CCC(=O)O)NC(=O)C(C)(C)NC(=O)[C@@H](N)Cc1ccc(O)cc1)[C@@H](C)O)[C@@H](C)O)[C@@H](C)CC)[C@@H](C)CC)C(=O)N[C@@H](CCC(=O)O)C(=O)NCC(=O)NCC(=O)N1CCC[C@H]1C(=O)N[C@@H](CO)C(=O)N[C@@H](CO)C(=O)NCC(=O)N[C@@H](C)C(=O)N1CCC[C@H]1C(=O)N1CCC[C@H]1C(=O)N1CCC[C@H]1C(=O)N[C@@H](CO)C(N)=O` [Example 177] (H-Y[Aib]EGT[αMePhe(2-F)]TSDHSI[αMeL]LDEK([AEEA-AEEA-γGlu-C18 diacid])AQ[Aib]HFI[dE]YLIEGGPSSGAPPPS-NH2), the EC50 in assay [1] came out at 6.79 nM; in assay [2] it was 1.4 nM.

As for `CC[C@H](C)[C@H](NC(=O)[C@H](CCCCN)NC(=O)[C@H](CC(=O)O)NC(=O)[C@H](CC(C)C)NC(=O)[C@](C)(CC(C)C)NC(=O)[C@@H](NC(=O)[C@H](CO)NC(=O)[C@H](Cc1ccc(O)cc1)NC(=O)[C@H](CC(=O)O)NC(=O)[C@H](CO)NC(=O)[C@@H](NC(=O)[C@H](Cc1ccccc1)NC(=O)[C@@H](NC(=O)CNC(=O)[C@H](CCC(=O)O)NC(=O)C(C)(C)NC(=O)[C@@H](N)Cc1ccc(O)cc1)[C@@H](C)O)[C@@H](C)O)[C@@H](C)CC)C(=O)N[C@@H](C)C(=O)N[C@@H](CCC(N)=O)C(=O)NC(C)(C)C(=O)N[C@@H](C)C(=O)N[C@@H](Cc1ccccc1)C(=O)N[C@H](C(=O)N[C@@H](CCC(=O)O)C(=O)N[C@@H](Cc1ccc(O)cc1)C(=O)N[C@@H](CC(C)C)C(=O)N[C@H](C(=O)N[C@@H](CCCCNC(=O)COCCOCCNC(=O)COCCOCCNC(=O)CC[C@H](NC(=O)CCCCCCCCCCCCCCCCCCC(=O)O)C(=O)O)C(=O)NCC(=O)NCC(N)=O)[C@@H](C)CC)[C@@H](C)CC` [Example 97] (H-Y[Aib]EGTFTSDYSI[αMeL]LDKIAQ[Aib]AFIEYLIK([AEEA-AEEA-γGlu-C20 diacid])GG-NH2), the EC50 in assay [1] stood at 2.18 nM; in assay [2] it was 1.85 nM.

For `CC[C@H](C)[C@H](NC(=O)[C@H](CC(C)C)NC(=O)[C@H](Cc1ccc(O)cc1)NC(=O)[C@H](CCC(=O)O)NC(=O)[C@@H](NC(=O)[C@H](Cc1ccccc1)NC(=O)[C@H](C)NC(=O)C(C)(C)NC(=O)[C@H](CCC(N)=O)NC(=O)[C@H](C)NC(=O)[C@H](CCCCNC(=O)COCCOCCNC(=O)COCCOCCNC(=O)CC[C@H](NC(=O)CCCCCCCCCCCCCCCCCCC(=O)O)C(=O)O)NC(=O)[C@H](CCCCN)NC(=O)[C@H](CC(=O)O)NC(=O)[C@H](CC(C)C)NC(=O)[C@H](CC(C)C)NC(=O)[C@@H](NC(=O)[C@H](CO)NC(=O)[C@H](Cc1ccc(O)cc1)NC(=O)[C@H](CC(=O)O)NC(=O)[C@H](CO)NC(=O)[C@@H](NC(=O)[C@](C)(Cc1ccccc1)NC(=O)[C@@H](NC(=O)CNC(=O)[C@H](CCC(=O)O)NC(=O)C(C)(C)NC(=O)[C@@H](N)Cc1ccc(O)cc1)[C@@H](C)O)[C@@H](C)O)[C@@H](C)CC)[C@@H](C)CC)C(=O)N[C@@H](CCC(=O)O)C(=O)NCC(=O)NCC(N)=O` [Example 98] (H-Y[Aib]EGT[αMeF]TSDYSILLDKK([AEEA-AEEA-γGlu-C20 diacid])AQ[Aib]AFIEYLIEGG-NH2), the concentration for a half-maximal effect (EC50) in assay [1] came out at 0.157 nM; in assay [2], 0.0718 nM.

Regarding `CC[C@H](C)[C@H](NC(=O)[C@H](CC(C)C)NC(=O)[C@H](Cc1ccc(O)cc1)NC(=O)[C@H](CCC(=O)O)NC(=O)[C@@H](NC(=O)[C@H](Cc1ccccc1)NC(=O)[C@H](C)NC(=O)[C@H](CCC(=O)O)NC(=O)[C@H](CCC(N)=O)NC(=O)[C@H](C)NC(=O)[C@H](CCCCNC(=O)COCCOCCNC(=O)COCCOCCNC(=O)CC[C@H](NC(=O)CCCCCCCCCCCCCCCCCCC(=O)O)C(=O)O)NC(=O)[C@H](CCCCN)NC(=O)[C@H](CC(=O)O)NC(=O)[C@H](CC(C)C)NC(=O)[C@H](CC(C)C)NC(=O)[C@@H](NC(=O)[C@H](CO)NC(=O)[C@H](Cc1ccc(O)cc1)NC(=O)[C@H](CC(=O)O)NC(=O)[C@H](CO)NC(=O)[C@@H](NC(=O)[C@H](Cc1ccccc1)NC(=O)[C@@H](NC(=O)CNC(=O)[C@H](CCC(=O)O)NC(=O)C(C)(C)NC(=O)[C@@H](N)Cc1ccc(O)cc1)[C@@H](C)O)[C@@H](C)O)[C@@H](C)CC)[C@@H](C)CC)C(=O)N[C@@H](CCC(=O)O)C(=O)NCC(=O)NCC(=O)N1CCC[C@H]1C(=O)N[C@@H](CO)C(=O)N[C@@H](CO)C(=O)NCC(=O)N[C@@H](C)C(=O)N1CCC[C@H]1C(=O)N1CCC[C@H]1C(=O)N1CCC[C@H]1C(=O)N[C@@H](CO)C(N)=O` [Example 261] (H-Y[Aib]EGTFTSDYSILLDKK([AEEA-AEEA-γGlu-C20 diacid])AQEAFIEYLIEGGPSSGAPPPS-NH2), the EC50 in assay [1] came out at 0.0948 nM; in assay [2] it was 0.16 nM.

For `CC[C@H](C)[C@H](NC(=O)[C@H](CC(C)C)NC(=O)[C@H](Cc1ccc(O)cc1)NC(=O)[C@H](CCC(=O)O)NC(=O)[C@@H](NC(=O)[C@H](Cc1ccccc1)NC(=O)[C@H](C)NC(=O)[C@H](CCCCN)NC(=O)[C@H](CCC(N)=O)NC(=O)[C@H](C)NC(=O)[C@H](CCCCNC(=O)COCCOCCNC(=O)COCCOCCNC(=O)CC[C@H](NC(=O)CCCCCCCCCCCCCCCCCCC(=O)O)C(=O)O)NC(=O)[C@H](CCCCN)NC(=O)[C@H](CC(=O)O)NC(=O)[C@H](CC(C)C)NC(=O)[C@H](CC(C)C)NC(=O)[C@@H](NC(=O)[C@H](CO)NC(=O)[C@H](Cc1ccc(O)cc1)NC(=O)[C@H](CC(=O)O)NC(=O)[C@H](CO)NC(=O)[C@@H](NC(=O)[C@H](Cc1ccccc1)NC(=O)[C@@H](NC(=O)CNC(=O)[C@H](CCC(=O)O)NC(=O)C(C)(C)NC(=O)[C@@H](N)Cc1ccc(O)cc1)[C@@H](C)O)[C@@H](C)O)[C@@H](C)CC)[C@@H](C)CC)C(=O)N[C@@H](CCC(=O)O)C(=O)NCC(=O)NCC(=O)N1CCC[C@H]1C(=O)N[C@@H](CO)C(=O)N[C@@H](CO)C(=O)NCC(=O)N[C@@H](C)C(=O)N1CCC[C@H]1C(=O)N1CCC[C@H]1C(=O)N1CCC[C@H]1C(=O)N[C@@H](CO)C(N)=O` [Example 256], the EC50 in assay [1] came to 0.0506 nM; in assay [2] it was 0.643 nM.

On to `CC[C@H](C)[C@H](NC(=O)[C@H](CCCCN)NC(=O)[C@H](CC(=O)O)NC(=O)[C@H](CC(C)C)NC(=O)[C@H](CC(C)C)NC(=O)[C@@H](NC(=O)[C@H](CO)NC(=O)[C@H](Cc1ccc(O)cc1)NC(=O)[C@H](CC(=O)O)NC(=O)[C@H](CO)NC(=O)[C@@H](NC(=O)[C@](C)(Cc1ccccc1)NC(=O)[C@@H](NC(=O)CNC(=O)[C@H](CCC(=O)O)NC(=O)C(C)(C)NC(=O)[C@@H](N)Cc1ccc(O)cc1)[C@@H](C)O)[C@@H](C)O)[C@@H](C)CC)C(=O)N[C@@H](C)C(=O)N[C@@H](CCC(N)=O)C(=O)NC(C)(C)C(=O)N[C@@H](CCCCNC(=O)COCCOCCNC(=O)COCCOCCNC(=O)CC[C@H](NC(=O)CCCCCCCCCCCCCCCCCCC(=O)O)C(=O)O)C(=O)N[C@@H](Cc1ccccc1)C(=O)N[C@H](C(=O)N[C@@H](CCC(=O)O)C(=O)N[C@@H](Cc1ccc(O)cc1)C(=O)N[C@@H](CC(C)C)C(=O)N[C@H](C(=O)N[C@@H](CCC(=O)O)C(=O)NCC(=O)NCC(N)=O)[C@@H](C)CC)[C@@H](C)CC` [Example 94] (H-Y[Aib]EGT[αMeF]TSDYSILLDKIAQ[Aib]K([AEEA-AEEA-γGlu-C20 diacid])FIEYLIEGG-NH2), for which the EC50 stood at 0.338 nM in assay [1] and 0.425 nM in assay [2].

As to `CC[C@H](C)[C@H](NC(=O)[C@H](CCCCN)NC(=O)[C@H](CC(=O)O)NC(=O)[C@H](CC(C)C)NC(=O)[C@H](CC(C)C)NC(=O)[C@@H](NC(=O)[C@H](CO)NC(=O)[C@H](Cc1ccc(O)cc1)NC(=O)[C@H](CC(=O)O)NC(=O)[C@H](CO)NC(=O)[C@@H](NC(=O)[C@H](Cc1ccccc1)NC(=O)[C@@H](NC(=O)CNC(=O)[C@H](CCC(=O)O)NC(=O)C(C)(C)NC(=O)[C@@H](N)Cc1ccc(O)cc1)[C@@H](C)O)[C@@H](C)O)[C@@H](C)CC)C(=O)N[C@@H](C)C(=O)N[C@@H](CCC(N)=O)C(=O)NC(C)(C)C(=O)N[C@@H](C)C(=O)N[C@@H](Cc1ccccc1)C(=O)N[C@H](C(=O)N[C@@H](CCC(=O)O)C(=O)N[C@@H](Cc1ccc(O)cc1)C(=O)N[C@@H](CC(C)C)C(=O)N[C@H](C(=O)N[C@@H](CCCCNC(=O)COCCOCCNC(=O)COCCOCCNC(=O)CC[C@H](NC(=O)CCCCCCCCCCCCCCCCCCC(=O)O)C(=O)O)C(=O)NCC(=O)NCC(N)=O)[C@@H](C)CC)[C@@H](C)CC` [Example 73] (H-Y[Aib]EGTFTSDYSILLDKIAQ[Aib]AFIEYLIK([AEEA-AEEA-γGlu-C20 diacid])GG-NH2), the EC50 turned out to be 2.55 nM in assay [1] and 0.979 nM in assay [2].
